Patent US20230110354A1, “THERAPEUTIC AGENT DELIVERY SYSTEMS AND METHODS OF FORMING AND USES THEREOF” (The Regents of the University of Colorado, a Body Corporate, priority 2020, published 2023)
Counter-ions that a name gives are not always drawn.

Legend:
[1] = package insert; cited from earlier work
[2] = Lidocaine release study, lidocaine-loaded nanoparticles in crosslinked gelatin hydrogel (UV-Vis 280 nm); format: physicochemical
Protocol: For the lidocaine release study, a coated tubing which comprises a dried 1 cm by 0.5 cm piece of gelatin-lidocaine (100 mg lidocaine in 0.5 ml gelatin, 1% GA) was used. The coated tubing was placed in a 7 ml glass scintillation vial for the release study. The release solution medium (1 ml of PBS) was added to the scintillation vials, and the sample was incubated at 37° C. 1 ml samples were taken daily, and the release solution was replenished. The day 0 sample was taken 5 minutes after adding the release solution to the vials to measure the amount of lidocaine not incorporated into the gels.
The amount of lidocaine released as an effect of different nanoparticle formulations and differing amounts of lidocaine was determined using a UV-Vis spectrophotometer (GENESYS 10S UV-Vis) at 280 nm wavelength and samples were performed in triplicate (n=3). As a control, the same gelatin samples were prepared without the addition of lidocaine to measure any change in absorbance readings from the gel itself.

[3] = Lidocaine release study, gelatin-lidocaine hydrogel (UV-Vis 280 nm); format: physicochemical
Protocol: The coated tubing was placed in a 7 ml glass scintillation vial for the release study.
The release solution medium (1 ml of PBS) was added to the scintillation vials, and the sample was incubated at 37° C. 1 ml samples were taken daily, and the release solution was replenished. The day 0 sample was taken 5 minutes after adding the release solution to the vials to measure the amount of lidocaine not incorporated into the gels. […] As a control, the same gelatin samples were prepared without the addition of lidocaine to measure any change in absorbance readings from the gel itself.

[4] = In vitro protein release test from SRTG micelle system (ELISA); format: physicochemical; conditions: for loading efficiency of protein in the hydrogel / loaded protein released by day 1 (burst release): SRTG 5 wt% + micelle NPs; for loading efficiency of protein in the hydrogel: 500 ng of each protein, day 0 sample after 5 min; for loaded protein released by day 1 (burst release): PBS with 0.2% BSA, 37° C.; for sustained release rate: after day 0 / day 1 through 28 days
Protocol: Proton nuclear magnetic resonance (1H NMR) was completed with a Varian Inova 500 NMR spectrometer. 1H NMR was used to confirm the structure of PEG-PSHU-PEG. The PEG-PSHU-PEG samples to be analyzed were dissolved in 600 μL of DMSO-d6. Protein Release Test. […] Solutions were mixed and left to dissolve overnight at 4° C. […] Then, 1 mL of warm (37° C.) release solution (lx PBS with 0.2% BSA) was added to the vials. After 5 min, 1 mL of release solution was removed from each sample for the day 0 time point, and 1 mL of fresh warm release solution was added. Samples were then taken every 24 h and immediately placed in a −80° C. freezer for further analysis. Enzyme-linked immunosorbent assay (ELISA) was used to quantify the concentration of proteins in the release solution samples following the manufacturer's instructions (Peprotech, Rocky Hill, N.J.). ELISA color development was monitored with a BioTek Synergy 2 Multi-Mode Reader at 405 nm with wavelength correction set at 650 nm. The results of three replicates were averaged. The hydrogels were initially allowed to stabilize for 5 min at which a sample was taken to determine the loading efficiency of the proteins in the hydrogels (day 0).

[5] = system: NIH3T3 cells; conditions: 10 pg/mL, low serum or serum-free medium; cited from earlier work
[6] = cited from earlier work

## CCN(CC)CC(=O)Nc1c(C)cccc1C [lidocaine hydrochloride]
[1]
  maximum dose at one time: ≤ 300 mg
  maximum subcutaneous dose: about 4.5 mg/kg

## CCN(CC)CC(=O)Nc1c(C)cccc1C [lidocaine]
[2]; 20 mg and 10 mg NP groups loaded with 100 mg of lidocaine, in gelatin hydrogel, PBS, 37° C.
  duration of sustained release of lidocaine: 10 days
[2]; 50 mg lidocaine groups, NP formulations in gelatin hydrogel
  duration of sustained release of lidocaine: 11 days
[2]; Example 6, chest tube coated with micelle-loaded crosslinked gelatin
  period of continued stable lidocaine elution, post-sterilization: 3 to 7 days
[3]; Example 7, chest tube coated with lidocaine loaded crosslinked gelatin
  period of continued stable lidocaine elution, post-sterilization: 3 to 7 days
[3]; various gelatin and glutaraldehyde concentrations, coated tubing method
  duration of sustained release of lidocaine: 10 days

## PDGF
[4]
  loading efficiency of protein in the hydrogel: 99%
  loaded protein released by day 1 (burst release): approximately 3%
[4]; SRTG micelle system
  sustained release rate: 0.39 ng per day
[4]; in vitro, SRTG micelle system
  duration of sustained release from the delivery system: 28 days

## TGF-β1: transforming growth factor-β1, literature example
[5]
  effect on growth rate of NIH3T3 cells: stimulated the growth rate of NIH3T3 cells

B1: IL-10: Recombinant Murine IL-10, anti-inflammatory cytokine; cited Kd is for human IL-10 (protein, UniProt P18893 19-178, looked up)
Interleukin-10: SRGQYSREDNNCTHFPVGQSHMLLELRTAFSQVKTFFQTKDQLDNILLTDSLMQDFKGYLGCQALSEMIQFYLVEVMPQAEKHGPEIKEHLNSLGEKLKTLRMRLRRCHRFLPCENKSKAVEQVKSDFNKLQDQGVYKAMNEFDIFINCIEAYMMIKMKS
[4]
  loading efficiency of protein in the hydrogel: 93%
  loaded protein released by day 1 (burst release): approximately 21%
[4]; SRTG micelle system
  sustained release rate: 0.24 ng per day
[6]
  half-life in vivo: less than 5 h
